From the supplement of paper PMC10307832

Experiments:
Test in all cases: relative viability (nuclei count vs DMSO), 5 days (fraction); higher = more cells survive
TGX 221 + Olaparib = compound: CC1=CN2C(=O)C=C(N=C2C(=C1)C(C)NC3=CC=CC=C3)N4CCOCC4 [TGX 221] + O=C(c1cc(Cc2n[nH]c(=O)c3ccccc23)ccc1F)N1CCN(C(=O)C2CC2)CC1 [Olaparib] (partner 8 µM)
How it was run: (§1)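 Relative viability divides the nuclei count in treated wells by that in vehicle wells. Lung cancer cell lines were seeded in 1536-well plates, dosed by pin tool the next day, and fixed and stained after 5 days in one step with final 0.05% Triton X-100, 1% formaldehyde and 1 ug/ml Hoechst. Dosing was a single drug or a fixed anchor-drug dose plus five library-drug doses (not always all listed) in √10 steps, and values are medians of duplicate plates imaged at 4×.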

TGX 221 + Lapatinib = compound: CC1=CN2C(=O)C=C(N=C2C(=C1)C(C)NC3=CC=CC=C3)N4CCOCC4 [TGX 221] + CS(=O)(=O)CCNCc1ccc(-c2ccc3ncnc(Nc4ccc(OCc5cccc(F)c5)c(Cl)c4)c3c2)o1 [Lapatinib] (partner 2 µM)
How it was run: as §1

[1] = compound: C1=CC=C(C(=C1)C2=CC=C(C=C2)C3=CSC4=C3C(=C(C(=O)N4)C#N)O)O + CS(=O)(=O)N1CCN(Cc2cc3nc(-c4cccc5[nH]ncc45)nc(N4CCOCC4)c3s2)CC1 [Pictilisib] (partner 1 µM)
How it was run: as §1

[2] = compound: C1=CC=C(C(=C1)C2=CC=C(C=C2)C3=CSC4=C3C(=C(C(=O)N4)C#N)O)O + CC(=O)c1c(C)c2cnc(Nc3ccc(N4CCNCC4)cn3)nc2n(C2CCCC2)c1=O [Palbociclib] (partner 0.5 µM)
How it was run: as §1

Cell Line | relative viability (TGX 221 + Olaparib; first compound 0.08 µM) | relative viability (TGX 221 + Olaparib; first compound 0.253 µM) | relative viability (TGX 221 + Olaparib; first compound 0.8 µM) | relative viability (TGX 221 + Olaparib; first compound 2.53 µM) | relative viability (TGX 221 + Olaparib; first compound 8 µM) | relative viability (TGX 221 + Lapatinib; first compound 0.08 µM) | relative viability (TGX 221 + Lapatinib; first compound 0.253 µM) | relative viability (TGX 221 + Lapatinib; first compound 0.8 µM) | relative viability (TGX 221 + Lapatinib; first compound 2.53 µM) | relative viability (TGX 221 + Lapatinib; first compound 8 µM) | relative viability ([1]; first compound 0.08 µM) | relative viability ([1]; first compound 0.253 µM) | relative viability ([1]; first compound 0.8 µM) | relative viability ([1]; first compound 2.53 µM) | relative viability ([1]; first compound 8 µM) | relative viability ([2]; first compound 0.08 µM) | relative viability ([2]; first compound 0.253 µM) | relative viability ([2]; first compound 0.8 µM) | relative viability ([2]; first compound 2.53 µM) | relative viability ([2]; first compound 8 µM)
NCI-H838 | 0.758 | 0.717 | 0.767 | 0.634 | 0.553 | 1.06 | 0.876 | 0.886 | 0.822 | 0.718 | 0.329 | 0.49 | 0.367 | 0.367 | 0.403 | 0.22 | 0.231 | 0.193 | 0.201 | 0.186
NCI-H1355 | 0.714 | 0.669 | 0.718 | 0.668 | 0.619 | 1.07 | 0.964 | 0.859 | 0.95 | 0.852 | 0.478 | 0.541 | 0.416 | 0.325 | 0.447 | 0.445 | 0.413 | 0.437 | 0.412 | 0.378
NCI-H1395 | 0.452 | 0.438 | 0.411 | 0.399 | 0.393 | 0.926 | 0.862 | 0.751 | 0.804 | 0.714 |  | 0.533 | 0.631 | 0.545 | 0.643 |  | 0.706 | 0.593 | 0.611 | 0.657
NCI-H1437 | 0.649 | 0.589 | 0.678 | 0.603 | 0.632 | 0.904 | 0.722 | 0.773 | 0.72 | 0.711 | 0.42 | 0.475 | 0.39 | 0.459 | 0.494 | 0.277 | 0.361 | 0.324 | 0.326 | 0.27
